Results as given in paper PMC9697976, “Giardia lamblia G6PD::6PGL Fused Protein Inhibitors Decrease Trophozoite Viability: A New Alternative against Giardiasis” (International Journal of Molecular Sciences, 2022).
Like-named read-outs stand apart in the source and are kept apart here.

Columns and labels:
G. lamblia trophozoites = test: Antigiardial activity, trophozoite viability (trypan blue); format: cell-based; settings: Giardia duodenalis, 48 h, read-out: IC50 G. lamblia (trophozoite viability)
Experimental: The trophozoites were incubated in the presence of compounds for 48 h at 37 °C with increasing concentrations of each of the compounds, and later the viability of the trophozoites was determined. The values represent mean ± standard deviation from three independent experiments, and standard errors of the mean were lower than 5%.
The Giardia lamblia WB strain (ATCC number 30957) was grown and cultivated in a modified TYI-S-33 medium supplemented with 10% fetal bovine serum at 37 °C. G. lamblia was harvested from a confluent culture by chilling the tubes on ice for 5–10 min to detach cells, followed by centrifugation at 800× g for 5 min. For the antigiardial activity assay, 5 × 10^4 trophozoites of G. lamblia were incubated with different concentrations of the compounds (31, 62, 125, 250, and 500 µM) in a final volume of 1.5 mL and then incubated for 48 h at 37 °C. After incubation, 75 µL of the treated trophozoites were subcultured individually for another 48 h in a fresh medium without compounds. At the end of this period, the viable trophozoites were counted using trypan blue. Each compound was assayed in three independent experiments. Appropriate controls were tested in each assay, including a sample without compounds and another with only 2% DMSO.

Caco-2 cells [1] = settings: cited from earlier work
G6PD::6PGL fused enzyme [2] = biological target: T1, G6PD::6PGL fused enzyme (Giardia intestinalis, UniProt A8BWM5); test: Screening of in-house library on G6PD::6PGL activity at 400 µM; format: biochemical, Giardia lamblia
Experimental: The effects of 120 organic molecules from the in-house chemical library of compounds, which were synthesized in the Medicinal Chemistry Laboratory at the Pharmacy Faculty of the Autonomous University Morelos State, include mainly aromatic and non-aromatic heterocyclic compounds with heteroatoms such as nitrogen, oxygen, and sulfur, which were evaluated as possible specific inhibitors of G6PD::6PGL. The assay was carried out following what was reported by Martinez-Rosas et al.; each compound was dissolved in dimethyl sulfoxide (DMSO), and the recombinant enzyme G6PD::6PGL (0.2 mg/mL) was incubated with the compounds at a concentration of 400 µM, for 2 h, at 37 °C. The residual enzymatic activity of the G6PD domain was measured following the spectrophotometric NADP^+ reduction at 340 nm with the standard reaction mixture. Activity data were plotted as percent residual activity, where 100% activity was taken from enzyme samples incubated without a compound.

G6PD::6PGL fused enzyme [3] = biological target: T1, G6PD::6PGL fused enzyme; test: Enzymatic inhibition assay (concentration-dependent inactivation) of G6PD::6PGL; format: biochemical, Giardia lamblia; settings: for inhibition at 200 µM: read-out: Loss of initial G6PD::6PGL activity
Experimental: G6PD::6PGL protein was adjusted at 0.2 mg/mL and incubated in the presence of different concentrations of compounds (0–800 μM). After incubation, aliquots were withdrawn from the samples, and the residual activity was determined. The G6PD::6PGL without compounds was used to determine 100% activity. The assays were carried out in triplicate, and the data represent the mean ± standard error.
The IC50 values of the four selected compounds were determined. […] The assay was performed using a protein concentration of 0.2 mg/mL in buffer T (100 mM Tris–HCl, 30 mM MgCl2, pH 8) with different concentrations of the compounds (0 to 800 µM). The protein was incubated at 37 °C for 2 h after the residual activity of the G6PD domain was measured. The data were plotted as percent activity, where 100% was taken as the enzyme’s activity without compounds. All values were adjusted to the Boltzmann sigmoid equation in the Origin 8.0® program (Northampton, MA, USA) to obtain the IC50 value expressed in µM units.

HT29 cells [4] = test: In vitro cytotoxicity, XTT assay, HT29; settings: for Selectivity index (SI), CC50 HT29 / IC50 G. lamblia: ratio of CC50/IC50 between mammalian cells and trophozoites; for Decrease of HT29 cell viability: 250 µM compound
Experimental: (§1) An XTT cell proliferation assay determined the viability.
(§2) The cytotoxicity assay was performed using human cell lines Caco-2 (ATCC HTB-37) and HT29 (ATCC HHTB-38) with a Cell Proliferation Kit II (XTT; St Louis, MO, USA). A cell suspension of 2 × 10^5 cells/mL was prepared in Dulbecco’s modified Eagle’s (DMEM) medium, supplemented with 10% inactivated fetal bovine serum and 1% penicillin/streptomycin (5000 U/mL), and 100 µL portions of the suspension were added to the wells of 96-well plates. The plates were incubated for 24 h at 37 °C in an atmosphere of 5% CO2. The medium in each well was replaced with 100 µL medium with compounds at 500, 250, 150, 75, 32, and 16 µM. After 48 h of incubation at 37 °C in an atmosphere of 5% CO2, the viability of cells was determined. The medium in each well was gently replaced with 100 µL of fresh medium, 50 µL of XTT labeling mixture was added per well, the mixture was incubated for four h at 37 °C and 5% CO2, and the absorbance at 495 nm was measured. Each compound was assayed in triplicate via three independent experiments. The CCI50 values were determined using the nonlinear regression function of GraphPad Prism version 6.04 for Windows.

in vitro = settings: human, Caco-2
Experimental: as §1, §2

HT29 cells [5] = settings: nitazoxanide; cited from earlier work
HsG6PD [6] = biological target: T2, HsG6PD (Homo sapiens, UniProt P11413); test: Effect of compounds on HsG6PD activity at 400 µM; format: biochemical
Excerpt: Based on the above, we decided to evaluate the effect in vitro of the compounds in the inactivation of the G6PD::6PGL enzyme.

G6PD::6PGL fused enzyme [7] = biological target: T1, G6PD::6PGL fused enzyme; test: Second-order inactivation constant (k2) of G6PD::6PGL; format: biochemical, Giardia lamblia; settings: for kinact/KI: read-out: Second-order inactivation constant (k2)
Experimental: At the indicated times, aliquots were withdrawn from the samples and assayed for residual activity. Initial velocity was fitted to determine each compound’s pseudo-first-order inactivation constants (k1). […] All experiments were performed in triplicate.
Inactivation assays were performed to determine the rate of each to form the enzyme–inhibitor complex. First, the pseudo-first-order constants (k1) were obtained by incubating 0.2 mg/mL of pure G6PD::6PGL enzyme and different concentrations of compound (0 to 500 µM) at 37 °C in time intervals (0–120 min). After the incubation period, enzyme activity was measured spectrophotometrically following the reduction of NADP^+ at 340 nm for each experimental condition. The results were expressed in terms of the activity percentage against each compound’s concentration. The residual activity data were fitted to a mono-exponential decay model, using the equation AR=A0 e^−kt , where AR is the residual activity at different times, A0 is the activity at the initial time, and k is the pseudo-first-order inactivation constant (min^−1). Subsequently, the constants obtained were plotted against the corresponding inhibitor concentration. A linear regression model was applied to obtain the second-order inactivation constant k2 (M^−1 s^−1).

[8] = In vitro cytotoxicity, XTT assay, HT29; settings: human
Experimental: as §1, §2

Caco-2 cells [9] = test: in vitro; settings: 250 µM compound
Experimental: as §1, §2

HsG6PD [10] = biological target: T2, HsG6PD; design: method as in earlier work; settings: ref 24 (Ramirez-Nava et al.); cited from earlier work
[11] = read-out: G6PD::6PGL Inhibition (%) at (400 μM), 400 μM compound, 0.2 mg/mL enzyme, 2 h, 37 °C
[12] = 400 μM compound, read-out: HsG6PD Inhibition (%) at (400 μM)
[13] = read-out: G6PD::6PGL IC50, 0.2 mg/mL enzyme, 0–800 μM compound, 2 h, 37 °C
[14] = read-out: G6PD::6PGL Inhibition (%) at (400 μM)

T2 sequence (P11413 whole entry): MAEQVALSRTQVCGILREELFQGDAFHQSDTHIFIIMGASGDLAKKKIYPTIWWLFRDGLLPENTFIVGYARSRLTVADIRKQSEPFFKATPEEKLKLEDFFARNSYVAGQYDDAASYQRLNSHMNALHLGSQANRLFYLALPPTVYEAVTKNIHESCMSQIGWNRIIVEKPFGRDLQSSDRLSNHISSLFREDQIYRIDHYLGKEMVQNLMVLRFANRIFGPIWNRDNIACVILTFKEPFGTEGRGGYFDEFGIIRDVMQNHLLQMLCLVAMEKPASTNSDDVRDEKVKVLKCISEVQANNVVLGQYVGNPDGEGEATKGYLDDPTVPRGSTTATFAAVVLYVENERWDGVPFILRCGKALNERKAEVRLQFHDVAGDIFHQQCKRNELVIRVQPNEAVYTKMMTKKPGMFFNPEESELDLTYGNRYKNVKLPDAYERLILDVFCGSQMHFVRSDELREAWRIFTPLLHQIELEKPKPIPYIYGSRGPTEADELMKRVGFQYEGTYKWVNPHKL
T1 sequence (A8BWM5 entry or part of it): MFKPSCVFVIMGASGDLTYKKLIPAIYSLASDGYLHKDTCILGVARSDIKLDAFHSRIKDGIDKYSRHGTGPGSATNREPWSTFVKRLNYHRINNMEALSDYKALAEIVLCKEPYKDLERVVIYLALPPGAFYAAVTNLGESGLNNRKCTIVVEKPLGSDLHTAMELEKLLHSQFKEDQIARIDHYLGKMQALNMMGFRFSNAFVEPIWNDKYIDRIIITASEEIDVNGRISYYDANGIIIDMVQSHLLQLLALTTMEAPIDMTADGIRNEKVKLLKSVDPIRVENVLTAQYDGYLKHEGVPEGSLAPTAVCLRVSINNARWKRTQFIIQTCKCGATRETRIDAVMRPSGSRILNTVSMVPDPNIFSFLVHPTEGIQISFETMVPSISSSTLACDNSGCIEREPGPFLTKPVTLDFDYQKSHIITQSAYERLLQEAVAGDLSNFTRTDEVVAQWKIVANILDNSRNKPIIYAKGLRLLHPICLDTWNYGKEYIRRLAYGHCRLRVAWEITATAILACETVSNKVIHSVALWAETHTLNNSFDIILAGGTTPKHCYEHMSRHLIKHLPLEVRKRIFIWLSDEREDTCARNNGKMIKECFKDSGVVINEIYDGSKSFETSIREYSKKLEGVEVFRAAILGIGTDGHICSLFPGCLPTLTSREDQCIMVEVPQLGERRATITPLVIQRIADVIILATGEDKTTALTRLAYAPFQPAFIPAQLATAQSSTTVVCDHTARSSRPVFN

## Cc1ncc([N+](=O)[O-])n1CCO [Metronidazole, reference compound]
G. lamblia trophozoites; 37 °C, WB strain
  IC50: 4.8 µM
Caco-2 cells [1]; metronidazole
  CC50 Caco-2 (literature IC50): 19 µM

## CC(=O)Oc1ccccc1C(=O)Nc1ncc([N+](=O)[O-])s1 [Nitazoxanide, reference compound]
G6PD::6PGL fused enzyme [2]; [11]
  inhibition at 400 µM: 100%
G6PD::6PGL fused enzyme [3]
  IC50: 78 µM
G. lamblia trophozoites
  IC50: 4.2 µM
HT29 cells [4]
  Selectivity index (SI), CC50 HT29 / IC50 G. lamblia: 12
In vitro
  selectivity ratio at 48 h: 7
HT29 cells [5]
  CC50 HT29 (literature IC50): > 50 µM
Caco-2 cells [1]; nitazoxanide
  CC50 Caco-2 (literature IC50): 26.8 µM

## CCCCOc1ccc(NC(=O)Nc2nc([N+](=O)[O-])cs2)cc1 [CNZ-7]
G6PD::6PGL fused enzyme [2]; [11]
  inhibition at 400 µM: 85%
HsG6PD [6]; [12]
  inhibition at 400 µM: 68%
G6PD::6PGL fused enzyme [3]; 2 h
  inhibition at 200 µM: 60%
G6PD::6PGL fused enzyme [3]; [13]
  IC50: 150 µM
G6PD::6PGL fused enzyme [7]
  kinact/KI: 0.97 M⁻¹ s⁻¹
G. lamblia trophozoites; 37 °C, WB strain
  IC50: 8.7 µM
[8]; HT29 cells
  CC50 at 48 h: 529 µM
HT29 cells [4]
  Decrease of HT29 cell viability: 25%
  Selectivity index (SI), CC50 HT29 / IC50 G. lamblia: 60
In vitro
  CC50 at 48 h: 640 µM
  selectivity ratio at 48 h: 74
Caco-2 cells [9]
  Decrease of Caco-2 cell viability: approximately 20%
HsG6PD [10]
  IC50: 274 µM

## O=C1CC(=O)NC(=O)N1 [Barbituric acid, reference compound]
G6PD::6PGL fused enzyme [2]; [14]
  inhibition at 400 µM: 0%
G6PD::6PGL fused enzyme [3]
  IC50: > 500 µM

## CCCCCC(=O)Nc1nc([N+](=O)[O-])cs1 [FLP-2]
G6PD::6PGL fused enzyme [2]; [11]
  inhibition at 400 µM: 89%
HsG6PD [6]; [12]
  inhibition at 400 µM: ~20%
G6PD::6PGL fused enzyme [3]; 2 h
  inhibition at 200 µM: 40%
G6PD::6PGL fused enzyme [3]; [13]
  IC50: 256 µM
G6PD::6PGL fused enzyme [7]
  kinact/KI: 0.82 M⁻¹ s⁻¹
G. lamblia trophozoites; 37 °C, WB strain
  IC50: 15.3 µM
[8]; HT29 cells
  CC50 at 48 h: 1910 µM
HT29 cells [4]
  Selectivity index (SI), CC50 HT29 / IC50 G. lamblia: 125
In vitro
  CC50 at 48 h: 3180 µM
  selectivity ratio at 48 h: 208

## O=C1NC(=O)C(=Cc2ccc(OCc3ccccc3)cc2)C(=O)N1 [CMC-1]
G6PD::6PGL fused enzyme [2]; [14]
  inhibition at 400 µM: 98%
HsG6PD [6]; read-out: HsG6PD Inhibition (%) at (400 μM), 400 μM compound
  inhibition at 400 µM: ~34%
G6PD::6PGL fused enzyme [3]
  IC50: 70 µM
G6PD::6PGL fused enzyme [3]; 2 h
  inhibition at 200 µM: 100%
G6PD::6PGL fused enzyme [7]; 0.2 mg/mL enzyme, 37 °C, 0–120 min
  Second-order inactivation constant (k2): 0.97 M⁻¹ s⁻¹
G. lamblia trophozoites
  IC50: 24.1 µM
HT29 cells [4]
  Decrease of HT29 cell viability: 25%
Caco-2 cells [9]
  Decrease of Caco-2 cell viability: approximately 20%

## O=C(Nc1ccc([N+](=O)[O-])cc1)Nc1nc([N+](=O)[O-])cs1 [CNZ-8]
G6PD::6PGL fused enzyme [2]; [11]
  inhibition at 400 µM: 75%
HsG6PD [6]; [12]
  inhibition at 400 µM: 43%
G6PD::6PGL fused enzyme [3]; 2 h
  inhibition at 200 µM: 80%
G6PD::6PGL fused enzyme [3]; [13]
  IC50: 80 µM
G6PD::6PGL fused enzyme [7]
  kinact/KI: 0.6 M⁻¹ s⁻¹
G. lamblia trophozoites; 37 °C, WB strain
  IC50: 15.2 µM
[8]
  CC50 at 48 h: 622 µM
HT29 cells [4]
  Decrease of HT29 cell viability: 25%
  Selectivity index (SI), CC50 HT29 / IC50 G. lamblia: 41
In vitro
  CC50 at 48 h: 633 µM
  selectivity ratio at 48 h: 41
Caco-2 cells [9]
  Decrease of Caco-2 cell viability: approximately 20%
